Reference: ChEMBL document CHEMBL3244275, “Synthesis and antitumor activity of 1,2-dihydro-1-(2-deosy-beta-D-erythro-pentofuranosyl)-2-oxo-5-methylpyrazine 4-oxide, a structural analogue of thymidine” (J Med Chem, 1977)

How the values were obtained:
[1] = system: L1210; assay: Growth inhibition of mouse L1210 cells at 9 x 10^-7 M after 40 hrs by trypan blue exclusion assay; assay type: functional; details: L1210, 40 h, read-out: GI
[2] = system: Enterococcus faecium; assay: Antibacterial activity against Streptococcus faecium at 8 x 10^-5 M; assay type: functional; details: read-out: GI
[3] = system: Escherichia coli; assay: Antibacterial activity against Escherichia coli at 1 x 10^-3 M; assay type: functional; details: read-out: GI
[4] = system: Escherichia coli; assay: Antibacterial activity against Escherichia coli K-12 at 1 x 10^-3 M; assay type: functional; details: read-out: GI
[5] = system: L1210; assay: Antitumor activity against mouse L1210 cells allografted in DBA/2 Ha mouse assessed as increase in life span of host at 100 mg/kg, ip qd for 6 days relative to control; assay type: functional; details: route intraperitoneal
[6] = system: L1210; assay: Antitumor activity against mouse L1210 cells allografted in DBA/2 Ha mouse assessed as increase in life span of host at 200 mg/kg, ip qd for 6 days relative to control; assay type: functional; details: route intraperitoneal
[7] = system: L1210; assay: Antitumor activity against mouse L1210 cells allografted in DBA/2 Ha mouse assessed as increase in life span of host at 400 mg/kg, ip qd for 6 days relative to control; assay type: functional; details: route intraperitoneal
[8] = system: Mus musculus; assay: Toxicity in mouse L1210 cells allografted DBA/2 Ha mouse assessed as overt signs of toxicity at 100 to 400 mg/kg, ip qd for 6 days; assay type: organism-based; set-up: dose 100-400 mg/kg, route intraperitoneal; details: in vivo, 144 h
[9] = system: L1210; assay: Growth inhibition of mouse L1210 cells at inhibitor/thymidine ratio 50 after 40 hrs by trypan blue exclusion assay; assay type: functional
[10] = system: L1210; assay: Growth inhibition of mouse L1210 cells at inhibitor/deoxyuridine ratio 2 after 40 hrs by trypan blue exclusion assay; assay type: functional
[11] = system: L1210; assay: Growth inhibition of mouse L1210 cells at inhibitor/deoxycytidine ratio 0.2 after 40 hrs by trypan blue exclusion assay; assay type: functional
[12] = system: L1210; assay: Growth inhibition of mouse L1210 cells at inhibitor/uridine ratio 0.04 after 40 hrs by trypan blue exclusion assay; assay type: functional
[13] = system: L1210; assay: Growth inhibition of mouse L1210 cells at inhibitor/cytidine ratio 0.02 after 40 hrs by trypan blue exclusion assay; assay type: functional

## Cc1cn([C@H]2C[C@H](O)[C@@H](CO)O2)c(=O)c[n+]1[O-]
[1]
  inhibition of growth at 0.9 µM: 50%
[2]
  inhibition of growth at 80 µM: 50%
[3]
  inhibition of growth at 1000 µM: 20%
[4]
  inhibition of growth at 1000 µM: 30%
[5]
  Activity: 18%
[6]
  Activity: 30%
[7]
  Activity: 55%
[8]
  Activity: Non-toxic
[9]
  growth inhibition (GI): 50%
[10]
  growth inhibition (GI): 50%
[11]
  growth inhibition (GI): 50%
[12]
  growth inhibition (GI): 50%
[13]
  growth inhibition (GI): 50%
